Results as given in US8691818B2, “Cyclic triazo and diazo sodium channel blockers” (University Of Greenwich, priority 2008, dated 2014).
Where a name gives a salt, the structure may show the parent alone.

What was measured:
[1] = test system: sodium channel; test: [14C]guanidine flux: veratrine-evoked uptake of [14C]guanidine into rat forebrain synaptosomes (primary sodium channel assay); assay type: biochemical; settings: 30° for 2½ min
Protocol: The screening strategy is designed to select compounds with appropriate sodium channel blocking activity and low side effect liability. To this end all compounds are processed through the primary sodium channel assay (veratrine-evoked uptake of [^14C]guanidine into rat forebrain synaptosomes) and IC50 values computed from generated concentration-effect curves.
Experiments were performed using forebrain (whole brain less cerebellum/medulla) from Male Wistar rats weighing 175-250 g. All efforts were made to reduce the number of animals used and all experiments were carried out in accordance with the UK Animals (Scientific Procedures) Act, 1986 and the European Community Council Directive of 24 Nov. 1986 (86/609/EEC). Following killing of animals by stunning and decapitation, the forebrain (whole brain less cerebellum/medulla) was rapidly dissected and transferred to a weighed tube containing ice-cold 0.25M sucrose.
Synaptosomes (heavy and light mitochondrial fraction containing synaptosomes) were prepared by transferring the forebrain (of known wet weight) to a glass Potter vessel to which 9 volumes ice-cold 0.25M sucrose had been added and homogenising, using a teflon pestle, by 8 ‘up and down strokes’ of a Braun Potter S motor driven homogeniser set to 900 rpm. The resulting homogenate was centrifuged at 1036×g at 4° for 10 min and the supernatant collected. The remaining pellet was resuspended, as above, in fresh ice-cold 0.25M sucrose and the centrifugation step repeated. The supernatant fractions were pooled and centrifuged at 40,000×g (average) at 4° for 15 min and the resulting pellet resuspended in the appropriate assay buffer at a concentration of 20-25 mg wet weight per ml appropriate assay buffer.
Both assays were carried out using 14 ml polypropylene test tubes to which a range of concentrations of the compounds under test were added.
The [^14C] guanidinine flux assay was measured using the method of Pauwels P J et al (1986) but carried out@30° for 2½ min.
(§1) Data are presented as mean±sem of number of experiments indicated in brackets.

[2] = target: T1, DiHydroFolate Reductase (DHFR) (Rattus norvegicus, UniProt Q920D2); test: Inhibition of binding of [3H]methotrexate to rat liver homogenate supernatant; settings: for inhibition at 125 µM: read-out: [3H]mtx binding (% inhibition @ 125 μM)
T1 construct: from tissue; host or cells: rat liver homogenate supernatant
T1 sequence (Q920D2 1-187): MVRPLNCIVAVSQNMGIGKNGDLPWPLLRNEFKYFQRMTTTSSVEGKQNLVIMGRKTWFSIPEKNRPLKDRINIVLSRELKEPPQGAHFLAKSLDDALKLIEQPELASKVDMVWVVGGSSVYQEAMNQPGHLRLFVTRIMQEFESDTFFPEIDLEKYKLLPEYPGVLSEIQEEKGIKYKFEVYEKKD
Protocol: All steps were carried out at 4° (or on ice). Freshly dissected rat liver was dissected into 0.25M ice-cold Sucrose and subsequently homogenised (U-turrax) in 50 mM pH 6.0 phosphate buffer (10 ml/g tissue) containing 15 mM Dithiothreitol. The resulting homogenate was centrifuged@47,500×g for 20 min and supernatant (filtered through cotton wool to remove fatty lumps) stored @ −80° before use (Rothenberg et al).
Inhibition of the binding of [^3H]methotrexate to rat liver homogenate supernatant fractions were carried out essentially as described by Arons et al, 1975.
as §1

Row | SMILES | IC50 [1] | inhibition at 125 µM [2] | melting point | inhibition at 99 µM ([2]; read-out: [3H]mtx binding % inhibition (* 99 μM, *** uses fresh batch of supernatant), 99 μM, fresh batch of supernatant)
1 | Nc1nnc(-c2ccc(OCc3ccccc3)cc2)c(N)n1 [CEN-131, 3,5-Diamino-6-(4-Benzyloxyphenyl)-1,2,4-triazine] | 288 µM | 94% | 205 to 207 °C | 
2 | Nc1nnc(-c2cc(Br)c(Br)s2)c(N)n1 [CEN-122, 3,5-Diamino-6-[2-(4,5-dibromothienyl)]-1,2,4-triazine] | > 1000 µM | 86% | 318 to 320 °C | 
3 | Nc1nnc(-c2ccc(-c3ccccc3)cc2)c(N)n1 [CEN-82, 3,5-Diamino-6-(4-biphenyl)-1,2,4-triazine] | > 1000 µM | -8% | 282 to 284 °C | 
4 | COc1cc(-c2nnc(N)nc2N)cc(OC)c1OC [CEN-95, 3,5-Diamino-6-(3,4,5 trimethoxyphenyl)-1,2,4-triazine] | > 1000 µM | 6% | 309 to 311 °C | 
5 | COc1ccc(-c2nnc(N)nc2N)cc1OC [CEN-115, 3,5-Diamino-6-(3,4-dimethoxyphenyl)-1,2,4-triazine] | > 1000 µM | 61% | 288 to 290 °C | 
6 | CC(C)(C)c1cc(-c2nnc(N)nc2N)cc(C(C)(C)C)c1 [CEN-187, 3,5-Diamino-6-(3,5-di-tert-butylphenyl)-1,2,4-triazine] | 447 µM | 99% | 278 to 280 °C | 
7 | Nc1nnc(-c2ccccc2-c2ccccc2)c(N)n1 [CEN-74, 3,5-Diamino-6-(2-biphenyl)-1,2,4-triazine] | 295 µM | 99% | 222 to 224 °C | 
8 | Nc1nnc(-c2cccc(Br)c2)c(N)n1 [CEN-69, 3,5-Diamino-6-(3-bromophenyl)-1,2,4-triazine] | 776 µM | 66% | 221 to 222 °C | 
9 | Nc1nnc(-c2cc(Cl)sc2Cl)c(N)n1 [CEN-71, 3,5-Diamino-6-[3-(2,5 dichlorothienyl)]-1,2,4-triazine] | 513 µM | 54% | 190 to 192 °C | 
10 | Nc1nnc(-c2ccc(Cl)s2)c(N)n1 [CEN-138, 3,5-Diamino-6-[2-(5-chlorothienyl)]-1,2,4-triazine] | > 2000 µM | 67% | 312 to 314 °C | 
11 | Nc1nnc(-c2ccccc2OC(F)(F)C(F)F)c(N)n1 [CEN-137, 3,5-Diamino-6-[2-(1,1,2,2-tetrafluoroethoxy)phenyl]-1,2,4-triazine] | > 2000 µM | 23% | 158 to 160 °C | 
12 | COc1cc2ccccc2cc1-c1nnc(N)nc1N [CEN-139] | 288 µM | 46% | 252 to 254 °C | 
13 | CS(=O)(=O)c1ccc(-c2nnc(N)nc2N)c(Cl)c1 [CEN-179, 3,5-Diamino-6-[2-chloro-4-(methylsulphonyl)phenyl]-1,2,4-triazine] | > 2000 µM | -1% | 286 to 288 °C | 
14 | Nc1nnc(-c2ccc(Br)s2)c(N)n1 [CEN-124, 3,5-Diamino-6-[2-(5-bromothienyl)]-1,2,4-triazine] | 871 µM | 90% | 265 to 268 °C | 
15 | Nc1nnc(-c2ccc3c(c2)OCCO3)c(N)n1 [CEN-109, 3,5-Diamino-6-(3,4-ethylenedioxyphenyl)-1,2,4-triazine] | > 1000 µM | 80% | 220 to 222 °C | 
16 | Nc1nnc(-c2c(Cl)cccc2Cl)c(N)n1 [CEN-104, 3,5-Diamino-6-(2,6-dichlorophenyl)-1,2,4-triazine] | > 1000 µM | 23% | 160 to 162 °C | 
17 | Nc1nnc(-c2cccc3c2CCCC3)c(N)n1 [CEN-94] | 398 µM | -2% | 202 to 204 °C | 
18 | Nc1nnc(-c2sccc2Br)c(N)n1 [CEN-125, 3,5-Diamino-6-[2-(3-bromothienyl)]-1,2,4-triazine] | 7590 µM | 6% | 215 to 217 °C | 
19 | Nc1nnc(-c2ccc(-c3ccccc3)o2)c(N)n1 [CEN-107, 3,5-Diamino-6-[2-(5-phenylfuryl)]-1,2,4-triazine] | 1170 µM | 48% | 247 to 249 °C | 
20 | Nc1nnc(-c2ccccc2Br)c(N)n1 [CEN-68, 3,5-Diamino-6-(2-bromophenyl)-1,2,4-triazine] | 794 µM | 101% | 198 to 200 °C | 
21 | Nc1nnc(-c2cc3ccccc3s2)c(N)n1 [CEN-113, 3,5-Diamino-6-[2-(benzo[b]thiophenyl)]-1,2,4-triazine] | 2000 µM | 65% | 344 to 345 °C | 
22 | Nc1nnc(-c2ccsc2)c(N)n1 [CEN-64, 3,5-Diamino-6-(3-thienyl)-1,2,4-triazine] | > 2000 µM | 52% | 199 to 201 °C | 
23 | Nc1nnc(-c2ccccc2OC(F)F)c(N)n1 [CEN-142] | > 2000 µM | 12% | 154 to 155 °C | 
24 | Cn1nc(-c2cc(C(F)(F)F)cc(Cl)c2F)c(N)nc1=N (as salt: mesylate) [CEN-202, 5(3)-Amino-6-(3-chloro-2-fluoro-5-trifluoromethyphenyl)-2,3(2,5)-dihydro-3(5)-imino-2-methyl-1,2,4-triazine mesylate] |  |  | 277 to 279 °C | 

More lines, in order of falling IC50 [1], values ahead:

Row | IC50 [1] | inhibition at 125 µM [2] | melting point | inhibition at 99 µM ([2]; read-out: [3H]mtx binding % inhibition (* 99 μM, *** uses fresh batch of supernatant), 99 μM, fresh batch of supernatant) | SMILES
25 | 288 µM | 30% | 212 to 214 °C |  | CCOc1cc2ccccc2cc1-c1nnc(N)nc1N [CEN-141]
26 | 190 µM | 82% | 163 to 165 °C |  | Nc1cnc(-c2ccc3ccccc3c2)c(N)n1 [CEN-88, 2,6-Diamino-3-(2-naphthyl)pyrazine]
27 | 91 µM |  | 218 to 220 °C | 95% | Nc1nnc(-c2cc(C(F)(F)F)cc(Cl)c2F)c(N)n1 [CEN-197, 3,5-Diamino-6-(3-chloro-2-fluoro-5-trifluoromethylphenyl)-1,2,4-triazine]
28 | 74 µM | 101% | 275 to 276 °C |  | CC(C)(C)c1ccc(-c2nnc(N)nc2N)cc1 [CEN-181, 3,5-Diamino-6-(4-tertbutylphenyl)-1,2,4-triazine]
29 | 69.2 µM | 4% | 240 to 242 °C |  | Nc1nnc(-c2ccccc2Cl)c(-c2ccccc2Cl)n1 [CEN-132, 3-Amino-5,6-bis(2-chlorophenyl)-1,2,4-triazine]
30 | 60.3 µM | 4% | 197 to 199 °C |  | CC(c1ccccc1)(c1ccccc1)c1nnc(N)nc1N [CEN-147, 3,5-Diamino-6-(1,1-diphenylethyl)-1,2,4-triazine]
31 | 57.5 µM | 96% | 164 to 166 °C |  | Nc1nnc(-c2cccc(OCc3ccc(Cl)cc3Cl)c2)c(N)n1 [CEN-144, 3,5-Diamino-6-[3-(2,4-dichlorobenzyloxyphenyl)]-1,2,4-triazine]
32 | 50.1 µM | 2% | 124 to 126 °C |  | Nc1nnc(C(c2ccccc2)(c2ccccc2)c2ccccc2)c(N)n1 [CEN-153, 3,5-Diamino-6-(triphenylmethy)-1,2,4-triazine]
33 | 26.9 µM | 43% | 160 to 161 °C |  | Cn1nc(-c2cccc(Oc3ccccc3)c2)c(N)nc1=N [CEN-106, 5(3)-Amino-6-(3-phenoxyphenyl)-2,3(2,5)-dihydro-3(5)-imino-2-methyl-1,2,4-triazine]
34 | 20.4 µM | 38% | 184 to 186 °C |  | Nc1nnc(C2(c3ccc(Cl)cc3)CCCC2)c(N)n1 [CEN-148, 3,5-Diamino-6-[1-(4-chlorophenyl)-1-cyclopenty]-1,2,4-triazine]
35 | 3 µM | 90% | 190 to 192 °C |  | Nc1nnc(-c2cccc(OCc3c(Cl)cccc3Cl)c2)c(N)n1 [CEN-185, 3,5-Diamino-6-[3-(2,6-dichlorobenzyloxy)phenyl]-1,2,4-triazine]
